One may read the melting point as the temperature, or range, at which the solid turns liquid.

Structures can show the parent of a compound that is named as a salt.

Consider `O=c1c(Cc2ccccn2)cc2cnc(NC3CCNCC3)nc2n1C1CCCC1` (as salt: TFA) [Example 26, 8-Cyclopentyl-2-(piperidin-4-ylamino)-6-pyridin-2-ylmethyl-8H-pyrido[2,3-d]pyrimidin-7-one], for which the melting point was 138 to 140 °C.
With `CS(=O)(=O)N1CCC(Nc2ncc3cc(Cc4ccccn4)c(=O)n(C4CCCC4)c3n2)CC1` [Example 27, 8-Cyclopentyl-2-(1-methanesulfonyl-piperidin-4-ylamino)-6-pyridin-2-ylmethyl-8H-pyrido[2,3-d]pyrimidin-7-one], the melting point lay within 220 to 223 °C.
The figure for `Cc1c(Cc2ccccc2)c(=O)n(C2CCCC2)c2nc(Nc3ccc(N4CCNCC4)cc3)ncc12` [Example 29, 6-Benzyl-8-cyclopentyl-5-methyl-2-(4-piperazin-1-yl-phenylamino)-8H-pyrido[2,3-d]pyrimidin-7-one] is 114 °C.
Turning to `Cc1c(C(O)c2ccccc2)c(=O)n(C2CCCC2)c2nc(Nc3ccc(N4CCNCC4)cc3)ncc12` (centres unmarked) [Example 31, 8-Cyclopentyl-6-(hydroxy-phenyl-methyl)-5-methyl-2-(4-piperazin-1-yl-phenylamino)-8H-pyrido[2,3-d]pyrimidin-7-one], the melting point is 185 °C (dec.).
The figure for `Cc1c(C(=O)c2ccccc2)c(=O)n(C2CCCC2)c2nc(Nc3ccc(N4CCNCC4)cc3)ncc12` [Example 32, 6-Benzoyl-8-cyclopentyl-5-methyl-2-(4-piperazin-1-yl-phenylamino)-8H-pyrido[2,3-d]pyrimidin-7-one] is 190 °C (dec.); for `CN1CCN(S(=O)(=O)N2CCC(Nc3ncc4cc(Cc5ccccc5)c(=O)n(C5CCCC5)c4n3)CC2)CC1` [Example 33, 6-Benzyl-8-cyclopentyl-2-[1-(4-methyl-piperazine-1-sulfonyl)-piperidin-4-ylamino]-8H-pyrido[2,3-d]pyrimidin-7-one] it is 182 to 183 °C; for `CC(C)S(=O)(=O)N1CCC(Nc2ncc3cc(Cc4ccccc4)c(=O)n(C4CCCC4)c3n2)CC1` [Example 34, 6-Benzyl-8-cyclopentyl-2-[1-(propane-2-sulfonyl)-piperidin-4-ylamino]-8H-pyrido[2,3-d]pyrimidin-7-one] it is 210 to 212 °C.
The figure for `CC(C)S(=O)(=O)N1CCC(Nc2ncc3cc(Cc4ccccn4)c(=O)n(C4CCCC4)c3n2)CC1` [Example 35, 8-Cyclopentyl-2-[1-(propane-2-sulfonyl)-piperidin-4-ylamino]-6-pyridin-2-ylmethyl-8H-pyrido[2,3-d]pyrimidin-7-one] is 216 to 219 °C.
The figure for `CN(C)C1CCC(Nc2ncc3cc(Cc4ccccc4)c(=O)n(C4CCCC4)c3n2)CC1` (centres unmarked) [Example 40, 6-Benzyl-8-cyclopentyl-2-(4-dimethylamino-cyclohexylamino)-8H-pyrido[2,3-d]pyrimidin-7-one] is 167 to 170 °C; for `O=c1c(Cc2ccccc2)cc2cnc(NC3CCCCC3)nc2n1C1CCCC1` [Example 41, 6-Benzyl-2-cyclohexylamino-8-cyclopentyl-8H-pyrido[2,3-d]pyrimidin-7-one] it is 128 to 130 °C.
Consider `O=c1c(Cc2ccccc2)cc2cnc(NCCO)nc2n1C1CCCC1` [Example 42, 6-Benzyl-8-cyclopentyl-2-(2-hydroxy-ethylamino)-8H-pyrido[2,3-d]pyrimidin-7-one], for which the melting point lay within 177 to 179 °C.
In turn, `O=c1c(Cc2ccccc2)cc2cnc(NCc3ccccc3)nc2n1C1CCCC1` [Example 43, 6-Benzyl-2-benzylamino-8-cyclopentyl-8H-pyrido[2,3-d]pyrimidin-7-one] returned a melting point of 186 to 188 °C.
For the compound `O=c1c(Cc2ccccc2)cc2cnc(Nc3ccccc3)nc2n1C1CCCC1` [Example 44, 6-Benzyl-8-cyclopentyl-2-phenylamino-8H-pyrido[2,3-d]pyrimidin-7-one], the melting point lay within 161 to 163 °C.
The same measure for `CCCN1CCC(Nc2ncc3cc(Cc4ccccc4)c(=O)n(C4CCCC4)c3n2)CC1` [Example 45, 6-Benzyl-8-cyclopentyl-2-(1-propyl-piperidin-4-ylamino)-8H-pyrido[2,3-d]pyrimidin-7-one]: 143 to 145 °C; for `O=c1c(Cc2ccccc2)cc2cnc(NC3CCNCC3)nc2n1C1CCCC1` [Example 46, 6-Benzyl-8-cyclopentyl-2-(piperidin-4-ylamino)-8H-pyrido[2,3-d]pyrimidin-7-one]: 75 °C; for `CNc1ncc2cc(Cc3ccccc3)c(=O)n(C3CCCC3)c2n1` [Example 47, 6-Benzyl-8-cyclopentyl-2-methylamino-8H-pyrido[2,3-d]pyrimidin-7-one]: 144 to 146 °C.
The figure for `CN(CCO)c1ncc2cc(Cc3ccccc3)c(=O)n(C3CCCC3)c2n1` [Example 48, 6-Benzyl-8-cyclopentyl-2-[(2-hydroxy-ethyl)-methyl-amino]-8H-pyrido[2,3-d]pyrimidin-7-one] is less than 60 °C.
The same measure for `CN(C)c1ncc2cc(Cc3ccccc3)c(=O)n(C3CCCC3)c2n1` [Example 49, 6-Benzyl-8-cyclopentyl-2-dimethylamino-8H-pyrido[2,3-d]pyrimidin-7-one]: 115 to 117 °C; for `O=c1c(Cc2ccccc2)cc2cnc(NCCCn3ccnc3)nc2n1C1CCCC1` [Example 50, 6-Benzyl-8-cyclopentyl-2-(3-imidazol-1-yl-propylamino)-8H-pyrido[2,3-d]pyrimidin-7-one]: 142 to 144 °C; for `O=c1c(Cc2ccccc2)cc2cnc(NCCc3cnc[nH]3)nc2n1C1CCCC1` [Example 51, 6-Benzyl-8-cyclopentyl-2-[2-(3H-imidazol-4-yl)-ethylamino]-8H-pyrido[2,3-d]pyrimidin-7-one]: 163 to 165 °C.
Regarding `O=C(O)CCNc1ncc2cc(Cc3ccccc3)c(=O)n(C3CCCC3)c2n1` [Example 52, 3-(6-Benzyl-8-cyclopentyl-7-oxo-7,8-dihydro-pyrido[2,3-d]pyrimidin-2-ylamino)-propionic acid], the melting point is 164 to 170 °C.
The compound `CS(=O)(=O)N1CCC(Nc2ncc3cc(Cc4ccccc4)c(=O)n(C4CCCC4)c3n2)CC1` [Example 54, 6-Benzyl-8-cyclopentyl-2-(1-methanesulfonyl-piperidin-4-ylamino)-8H-pyrido[2,3-d]pyrimidin-7-one] displayed a melting point of 243 to 245 °C.
The figure for `CCCN1CCC(Nc2ncc3cc(Cc4ccc(C)cc4)c(=O)n(C4CCCC4)c3n2)CC1` [Example 59, 8-Cyclopentyl-6-(4-methyl-benzyl)-2-(1-propyl-piperidin-4-ylamino)-8H-pyrido[2,3-d]pyrimidin-7-one] is 154 to 155 °C; for `CCCN1CCC(Nc2ncc3cc(Cc4ccccc4C)c(=O)n(C4CCCC4)c3n2)CC1` [Example 60, 8-Cyclopentyl-6-(2-methyl-benzyl)-2-(1-propyl-piperidin-4-ylamino)-8H-pyrido[2,3-d]pyrimidin-7-one] it is 149 to 151 °C; for `CCCN1CCC(Nc2ncc3cc(Cc4cccc(C)c4)c(=O)n(C4CCCC4)c3n2)CC1` [Example 61, 8-Cyclopentyl-6-(3-methyl-benzyl)-2-(1-propyl-piperidin-4-ylamino)-8H-pyrido[2,3-d]pyrimidin-7-one] it is 118 to 120 °C.
On to `CCCN1CCC(Nc2ncc3cc(Cc4ccc(CC)cc4)c(=O)n(C4CCCC4)c3n2)CC1` [Example 62, 8-Cyclopentyl-6-(4-ethyl-benzyl)-2-(1-propyl-piperidin-4-ylamino)-8H-pyrido[2,3-d]pyrimidin-one], for which the melting point was 151 to 153 °C.
`CCCN1CCC(Nc2ncc3cc(Cc4ccc(C(C)C)cc4)c(=O)n(C4CCCC4)c3n2)CC1` [Example 63, 8-Cyclopentyl-6-(4-isopropyl-benzyl)-2-(1-propyl-piperidin-4-ylamino)-8H-pyrido[2,3-d]pyrimidin-7-one] displayed a melting point of 156 to 160 °C.
The same measure for `Cc1ccccc1Cc1cc2cnc(NC3CCC(N(C)C)CC3)nc2n(C2CCCC2)c1=O` (centres unmarked) [Example 64, 8-Cyclopentyl-2-(4-dimethylamino-cyclohexylamino)-6-(2-methyl-benzyl)-8H-pyrido[2,3-d]pyrimidin-7-one]: 178 to 183 °C; for `Cc1cccc(Cc2cc3cnc(NC4CCC(N(C)C)CC4)nc3n(C3CCCC3)c2=O)c1` (centres unmarked) [Example 65, 8-Cyclopentyl-2-(4-dimethylamino-cyclohexylamino)-6-(3-methyl-benzyl)-8H-pyrido[2,3-d]pyrimidin-7-one]: 191 to 194 °C.
For `Cc1ccc(Cc2cc3cnc(NC4CCC(N(C)C)CC4)nc3n(C3CCCC3)c2=O)cc1` (centres unmarked) [Example 66, 8-Cyclopentyl-2-(4-dimethylamino-cyclohexylamino)-6-(4-methyl-benzyl)-8H-pyrido[2,3-d]pyrimidin-7-one], the melting point is 179 to 184 °C.
As for `CCc1ccc(Cc2cc3cnc(NC4CCC(N(C)C)CC4)nc3n(C3CCCC3)c2=O)cc1` (centres unmarked) [Example 67, 8-Cyclopentyl-2-(4-dimethylamino-cyclohexylamino)-6-(4-ethyl-benzyl)-8H-pyrido[2,3-d]pyrimidin-7-one], the melting point lay within 175 to 181 °C.
The figure for `CC(C)c1ccc(Cc2cc3cnc(NC4CCC(N(C)C)CC4)nc3n(C3CCCC3)c2=O)cc1` (centres unmarked) [Example 68, 8-Cyclopentyl-2-(4-dimethylamino-cyclohexylamino)-6-(4-isopropyl-benzyl)-8H-pyrido[2,3-d]pyrimidin-7-one] is 174 to 181 °C; for `Cc1ccccc1Cc1cc2cnc(Nc3ccc(N4CCNCC4)cc3)nc2n(C2CCCC2)c1=O` [Example 69, 8-Cyclopentyl-6-(2-methyl-benzyl)-2-(4-piperazin-1-yl-phenylamino)-8H-pyrido[2,3-d]pyrimidin-7-one] it is 210 °C; for `Cc1cccc(Cc2cc3cnc(Nc4ccc(N5CCNCC5)cc4)nc3n(C3CCCC3)c2=O)c1` [Example 70, 8-Cyclopentyl-6-(3-methyl-benzyl)-2-(4-piperazin-1-yl-phenylamino)-8H-pyrido[2,3-d]pyrimidin-7-one] it is 200 to 203 °C.
The same measure for `CCc1ccc(Cc2cc3cnc(Nc4ccc(N5CCNCC5)cc4)nc3n(C3CCCC3)c2=O)cc1` [Example 71, 8-Cyclopentyl-6-(4-ethyl-benzyl)-2-(4-piperazin-1-yl-phenylamino)-8H-pyrido[2,3-d]pyrimidin-7-one]: 175 °C.

(Values after patent US20060142312A1, “C6-aryl and heteroaryl substituted pyrido[2,3-D] pyrimidin-7-ones” (PFIZER INC, priority 2004, published 2006).)
